Key:
Format in all cases: in vivo, rat
[1] = system: rats with middle cerebral artery occlusion; test: Cerebral microcirculatory blood flow in rats with middle cerebral artery occlusion; settings: 1 mL/kg ip
Method: 60 SD rats with a body weight of 220±20 g were randomly divided into normal control group, model control group, salvianic acid injection group (ip. 1 mL/kg), and group of bornyl β-(3,4-dihydroxylphenyl)-α-hydroxylpropionate ester at a small, middle and large dose respectively (ip. 5, 15, and 35 mg/kg). The rats of normal group and model group were administered with equal-volume of physiologic saline by ip. The rats were anesthetized by intraperitoneal injection of 1% pentobarbital sodium at an amount of 40 mg/kg, then placed at supine position, head fixed, and cut skin along cervical middle line. Trachea cannula, was inserted into the rats and they were allowed to spontaneous respire. Right common jugular vein and common carotid artery were isolated and a suture was introduced for later use. Animals were fixed on a rat stereotaxic apparatus, a cranial window with a size of 6×8 mm was opened at the right temple with a dental drill, after hemostasis, cerebral dura mater was cut open with scissors to expose cerebral pia mater. The window was covered and sealed with glass and dental cement, and the laser probe of a laser-doppler microcirculatory blood flow meter was fixed on the cranial window. Then the animals were fixed at lateral position, the right common carotid artery was lifted, ligated at the proximal part and carefully cut with scissors, a nylon suture having a diameter of about 0.3 mm was introduced into the artery. The distance between the artery cut and the paropia of the rats was marked before the suture was introduced. […] When the suture arrived at middle cerebral artery, an abrupt decrease of the microcirculatory blood flow would be observed. After the observation of a decrease in the microcirculatory blood flow, the suture was further penetrated by about 1 mm, and the distal end of the cut and the suture in the artery were ligated securely. Spare suture was cut-off. After the end of the test, it was checked whether the nylon suture blocked the initiation site of the middle cerebral artery, and the data of any animal whose artery was not blocked were cancelled. The animals of the control group were not treated. After the cranial window was prepared, the probe of J I2200 type laser-doppler microcirculatory blood flow meter was fixed at the cranial window, and the probe was maintained without displacement and rotation during the whole test. The microcirculatory blood flows before ligation and 5, 15, 30, 45 and 60 min after ligation were recorded, and the data of the animals in the drug-treatment groups were recorded at the same time points. The mean microcirculatory blood flow observed within 1 min at each time point was designated as the microcirculatory blood flow of the respective time point.

Bax = test: Immunohistochemistry protein expression in I/R myocardial tissue: Bax; settings: 1 mL/kg, 5 days; ischemia 30 min, reperfusion 2 h
Method: (§1) 52 SD rats having a body weight of 220±20 g were randomly divided into model control group, salviannic acid injection group (in 1 mL/kg), and group of bornyl β-(3,4-dihydroxylphenyl)-α-hydroxylpropionate ester at a small, middle and large dose (ip 5, 15, 35 mg/kg). The rats of the normal group and the model control group were ip administered with equal-volume of physiologic saline. The rats of all groups were administered for consecutive 5 days. When the rats were administered for the last time, they were simultaneously anesthetized with 1.5% pentobarbital sodium (ip 45 mg/kg), then a catheter was inserted into the right carotid artery, and connected via a transducer to an eight-channeled physiological recorder. Tracheal cannula was performed, and the ventilation rate was maintained at 60 times/min. The chest was opened, a 6/0 suture was used to form a loop at a site 1˜2 mm from the root of the anterior descending coronary artery, and a plastic pipe was introduced through the loop, then the loop was tightened up. The change of electrocardiogram was observed. An increase or decrease of ST indicated the success of ligation. The color of the myocardial tissue below the ligation suture became darker. 30 minutes later, the plastic pipe was pulled out to allow coronary artery blood flowing again and cause hyperemia of local tissue during reperfusion. For the groups subjected to ischemia for 30 min and reperfusion for 30 min, the myocardial infarction areas were recorded before the test, after ischemia for 1 min and 30 min, and after reperfusion for 30 min; for the groups subjected to ischemia for 30 min and reperfusion for 2 h, cardiac tissue samples were taken and fixed using 10% formalin, embedded with paraffin, serially sliced into sections with a thickness of 4 μm, and separately subjected to immunohistochemistry tests; the rats of the sham operation group were subjected only to the introduction of suture but their coronary arteries were not ligated.
(§2) Standard immunohistochemistry ABC and SP methods were employed for staining. Bax: anti-rabbit polyclonal antibody (Santa CruzBio. Inc.) at a dilution of 1:200; […]: anti-rabbit polyclonal antibody (TBD Tianjin Biotechnological Center). At a dilution of […]; caspase-3: anti-rabbit polyclonal antibody (Normarkers Fromont, Calif.), at a dilution of 1:200; MMP-2: anti-murine monoclonal antibody (NormarkersFromont, Calif.) at a dilution of 1:200; PPARγ: anti-caprine polyclonal antibody (Santa Cruz Bio. Inc.), at a dilution of 1:500. The specific procedures were performed in accordance with the instructions of the ABC and SP kits, DAB was used for color development, and neutral resin was used for mounting. PBS was used instead of the first antibody as a negative control. Cells with positive expression of the test polypeptides were of brown-yellow color, with MMP-2 protein being present in acytoplasm, Bcl-2 expressed in nuclear membrane and cytoplasm, Bax mainly in cytoplasm and partially in nucleus, and caspase-3 mainly in nucleus and partially in cytoplasm. CMIAS image analysis system was used for random selection of fields of slices and automatic selection of sites for analysis, and statistic analysis was performed by using mean optical density values or integral optical density values of the obtained myocardial tissue slices.

[2] = system: rats with cardiac ischemia reperfusion (I/R) injury; test: Myocardial infarction areas caused by cardiac muscle I/R; settings: 1 mL/kg, 5 days; ischemia 30 min, reperfusion 30 min
Method: as §1
After the rats were subjected to ischemia and reperfusion for 30 minutes, their anterior descending coronaries were ligated again, then they were sacrificed, their hearts were removed promptly, and 0.5 mL of 1% evans blue was injected into heart chambers via aorta to distinguish the ischemic regions and the non-ischemic regions. After the heart atrium and right ventricle were cut-off, the heart was refrigerated at −20° C. for 30 min, then placed in a tailor-made slice groove, and cut along the long axis to form 2 mm slices. The slices were immersed in 1% TTC phosphoric acid buffer solution (pH7.4), and incubated at 37° C. for 30 min to distinguish risky regions and necrotic regions. Then the slices were fixed with 10% formaldehyde for 24 h to enhance staining color for contrast photography. After the above treatment, the myocardial tissue was divided into: normal myocardia in blue, ischemic myocardia in light red, and necrotic myocardion in gray. A computer image analysis software was used to calculate the percentage of the area of the infarct myocardial region (nec) based on the area of the risky myocardial region (aar, i.e., ischemic myocardia, including ischemic infarct region and ischemic non-infarct region) (nec/aar), and the percentage of the area of the infarct myocardial region based on the whole area of the myocardia (nec/lv) to indicate the degree of infarct, as well as the percentage of the area of the risky myocardia based on the area of the left ventricle (aar/lv).

Bcl-2 = test: Immunohistochemistry protein expression in I/R myocardial tissue: Bcl-2; settings: 1 mL/kg, 5 days; ischemia 30 min, reperfusion 2 h
Method: as §1, §2

MMP-2 = test: Immunohistochemistry protein expression in I/R myocardial tissue: MMP-2; settings: 1 mL/kg, 5 days; ischemia 30 min, reperfusion 2 h
Method: as §1, §2

PPARγ = test: Immunohistochemistry protein expression in I/R myocardial tissue: PPARγ; settings: 1 mL/kg, 5 days; ischemia 30 min, reperfusion 2 h
Method: as §1
Standard immunohistochemistry ABC and SP methods were employed for staining. Bax: anti-rabbit polyclonal antibody (Santa CruzBio. Inc.) at a dilution of 1:200; […]: anti-rabbit polyclonal antibody (TBD Tianjin Biotechnological Center). At a dilution of […]; caspase-3: anti-rabbit polyclonal antibody (Normarkers Fromont, Calif.), at a dilution of 1:200; MMP-2: anti-murine monoclonal antibody (NormarkersFromont, Calif.) at a dilution of 1:200; PPARγ: anti-caprine polyclonal antibody (Santa Cruz Bio. Inc.), at a dilution of 1:500. The specific procedures were performed in accordance with the instructions of the ABC and SP kits, DAB was used for color development, and neutral resin was used for mounting. PBS was used instead of the first antibody as a negative control. […]

caspase-3 = test: Immunohistochemistry protein expression in I/R myocardial tissue: caspase-3; settings: 1 mL/kg, 5 days; ischemia 30 min, reperfusion 2 h
Method: as §1, §2

In the case of `O=C(O)C(O)Cc1ccc(O)c(O)c1` (stereo not drawn) [Salvianic acid, β-(3,4-dihydroxyphenyl)-α-hydroxyl-propionic acid, reference compound], the Microcirculatory blood flow ([1]; 5 min after ligation) is reported as 10.8 ± 3.6 mL, the Microcirculatory blood flow ([1]; 15 min after ligation) is reported as 20.1 ± 6.9 mL and the Microcirculatory blood flow ([1]; 30 min after ligation) is reported as 31.2 ± 9.5 mL. For the same compound, the Microcirculatory blood flow ([1]; 45 min after ligation) was 33.0 ± 6.8 mL, the Microcirculatory blood flow ([1]; 60 min after ligation) was 29.4 ± 6.9 mL and the “Bax protein expression, OD value” (Bax) was 0.08 ± 0.02. For the same compound, the aar/lv [2] was 50.21 ± 7.10 %, the nec/aar [2] was 49.87 ± 7.83 % and the nec/lv [2] was 41.41 ± 5.49 %. For the same compound, the “Bcl-2 protein expression, OD value” (Bcl-2) was 0.18 ± 0.04, the “MMP-2 protein expression, OD value” (MMP-2) was 0.12 ± 0.05 and the “PPARγ protein expression, OD value” (PPARγ) was 0.34 ± 0.08. For the same compound, the “Caspase-3 protein expression, OD value” (caspase-3) was 0.21 ± 0.12.

Reference: patent US8017786B2, “Substituted β-phenyl-α-hydroxy-propanoic acid, synthesis method and use thereof” (Northwest University, priority 2006, dated 2011)
